Experiments:
[1] = target: T1, human PDE5 (Homo sapiens, UniProt O76074); assay: Inhibition of PDE5 activity (modified SPA test, human platelet lysate); assay type: biochemical; settings: PDE5-containing human platelet lysate, 0.5 μM cGMP substrate, 37° C.
T1 construct: from tissue; host or cells: human platelets from fresh donor blood (10,000 g supernatant of sonified platelets)
Method: As a source for human PDE5, platelets were used. For that purpose, 150 ml fresh blood from human donors anticoagulated with citrate [final concentration 0.3% (w/v)] was centrifuged at 200 g for 10 min to obtain the so-called platelet-rich-plasma (PRP) as a supernatant. 1/10 volume of ACD solution (85 mM Na3-citrate, 111 mM D-glucose, 71 mM citric acid, pH 4.4) was added to 9/10 volume of PRP. After centrifugation (1,400 g, 10 min) the cell pellet was resuspended in 3 ml homogenization buffer (NaCl 140 mM, KCl 3.8 mM, EGTA 1 mM, MgCl2 1 mM, Tris-HCl 20 mM, beta-mercaptoethanol 1 mM, pH 8.2) plus protease-inhibitor mix giving rise to the final concentrations of 0.5 mM Pefablock (Roche), 10 μM Leupeptin, 5 μM Trypsininhibitor, 2 mM Benzamidin and 10 μM Pepstatin A. The suspension was sonified and thereafter centrifuged for 15 min at 10,000 g. The resulting supernatant (platelet lysate) was used for enzymatic testings.
PDE5A1 activity is inhibited by the compounds of the invention in a modified SPA (scintillation proximity assay) test, supplied by Amersham Biosciences (see procedural instructions “phosphodiesterase [3H]cAMP SPA enzyme assay, code TRKQ 7090”), carried out in 96-well microtitre plates (MTP's). The test volume is 100 μl and contains 20 mM Tris buffer (pH 7.4), 0.1 mg of BSA (bovine serum albumin)/ml, 5 mM Mg^2+, 1 μM motapizone, 10 nM PDE2 inhibitor BAY-60-7550, 0.5 μM cGMP (including about 50,000 cpm of [3H]cGMP as a tracer), 1 μl of the respective compound dilution in dimethylsulfoxide (DMSO) and sufficient PDE5-containing platelet lysat (10,000×g supernatant, see above) to ensure that 10-20 wt % of the cGMP is converted under the said experimental conditions. […] After a preincubation of 5 min at 37° C., the reaction was started by adding the substrate (cGMP) and the assay was incubated for a further 15 min; after that, it was stopped by adding SPA beads (50 μl). In accordance with the manufacturer's instructions, the SPA beads had previously been resuspended in water, but were then diluted 1:3 (v/v) in water; the diluted solution also contains 3 mM 8-methoxymethyl-3-isobutyl-1-methylxanthine (IBMX) to ensure a complete PDE activity stop. After the beads have been sedimented (>30 min), the MTP's are analyzed in commercially available luminescence detection devices. The corresponding IC50 values of the compounds for the inhibition of PDE activity are determined from the concentration-effect curves by means of non-linear regression.

| melting point | IC50 [1] [nM] | SMILES |
| --- | --- | --- |
| 177 °C | 6.31 | COc1ccc(Cc2nc3c(c4c2[nH]c2ccccc24)C(=O)CCC3)cc1 [Example 2, 6-(4-Methoxy-benzyl)-2,3,4,7-tetrahydro-indolo[2,3-c]quinolin-1-one] |
| 205 °C | 19.5 | O=C1CCCc2nc(Cc3ccccc3)c3[nH]c4ccccc4c3c21 [Example 3, 6-Benzyl-2,3,4,7-tetrahydro-indolo[2,3-c]quinolin-1-one] |
| 186 °C | 3.39 | COc1ccc(Cc2nc3c(c4c2[nH]c2ccccc24)CCC(C)C3)cc1 (stereo not drawn) [Example 4, 6-(4-Methoxy-benzyl)-3-methyl-2,3,4,7-tetrahydro-1H-indolo[2,3-c]quinoline] |
| 141 to 143 °C | 135 | CC1(C)CC(=O)c2c(nc(Cc3ccc(OC(F)(F)F)cc3)c3[nH]c4ccccc4c23)C1 [Example 11, 3,3-Dimethyl-6-(4-trifluoromethoxy-benzyl)-2,3,4,7-tetrahydro-indolo[2,3-c]quinolin-1-one] |
| 179 to 181 °C | 26.9 | CCOc1ccc(Cc2nc3c(c4c2[nH]c2ccccc24)C(=O)CC(C)(C)C3)cc1 [Example 12, 6-(4-Ethoxy-benzyl)-3,3-dimethyl-2,3,4,7-tetrahydro-indolo[2,3-c]quinolin-1-one] |
| 153 to 155 °C | 347 | CC(C)c1ccc(Cc2nc3c(c4c2[nH]c2ccccc24)C(=O)CC(C)(C)C3)cc1 [Example 14, 6-(4-Isopropyl-benzyl)-3,3-dimethyl-2,3,4,7-tetrahydro-indolo[2,3-c]quinolin-1-one] |
| 209 to 211 °C | 6.31 | COc1ccc(Cc2nc3c(c4c2[nH]c2ccccc24)C(=O)CC(C)(C)C3)cc1Cl [Example 15, 6-(3-Chloro-4-methoxy-benzyl)-3,3-dimethyl-2,3,4,7-tetrahydro-indolo[2,3-c]quinolin-1-one] |
| 102 °C | 3.16 | COc1ccc(Cc2nc3c(c4c2[nH]c2ccccc24)C(=O)CC(C)C3)cc1 (stereo not drawn) [Example 17, 6-(4-Methoxy-benzyl)-3-methyl-2,3,4,7-tetrahydro-indolo[2,3-c]quinolin-1-one] |
| 194 to 197 °C | 3.63 | O=C1CCCc2nc(Cc3ccc4c(c3)OCO4)c3[nH]c4ccccc4c3c21 [Example 18, 6-Benzo[1,3]dioxol-5-ylmethyl-2,3,4,7-tetrahydro-indolo[2,3-c]quinolin-1-one] |
| 205 to 207 °C | 10.2 | CC1(C)CC(=O)c2c(nc(Cc3ccc(Cl)cc3)c3[nH]c4ccccc4c23)C1 [Example 20, 6-(4-Chloro-benzyl)-3,3-dimethyl-2,3,4,7-tetrahydro-indolo[2,3-c]quinolin-1-one] |
| 215 to 219 °C | 126 | CC1(C)CC(=O)c2c(nc(Cc3cccc(Br)c3)c3[nH]c4ccccc4c23)C1 [Example 21, 6-(3-Bromo-benzyl)-3,3-dimethyl-2,3,4,7-tetrahydro-indolo[2,3-c]quinolin-1-one] |
| 204 to 208 °C | 15.5 | CC1(C)CC(=O)c2c(nc(Cc3cc(F)cc(F)c3)c3[nH]c4ccccc4c23)C1 [Example 22, 6-(3,5-Difluoro-benzyl)-3,3-dimethyl-2,3,4,7-tetrahydro-indolo[2,3-c]quinolin-1-one] |
| 192 to 195 °C | 1.26 | COc1ccc(Cc2nc3c(c4c2[nH]c2ccccc24)C(=O)CC(C)(C)C3)cc1F [Example 23, 6-(3-Fluoro-4-methoxy-benzyl)-3,3-dimethyl-2,3,4,7-tetrahydro-indolo[2,3-c]quinolin-1-one] |
| 204 to 207 °C | 14.1 | CC1(C)CC(=O)c2c(nc(Cc3ccc(F)c(F)c3)c3[nH]c4ccccc4c23)C1 [Example 24, 6-(3,4-Difluoro-benzyl)-3,3-dimethyl-2,3,4,7-tetrahydro-indolo[2,3-c]quinolin-1-one] |
| 182 to 184 °C | 2.95 | Cc1ccc(Cc2nc3c(c4c2[nH]c2ccccc24)C(=O)CC(C)(C)C3)cc1 [Example 25, 3,3-Dimethyl-6-(4-methyl-benzyl)-2,3,4,7-tetrahydro-indolo[2,3-c]quinolin-1-one] |
| 138 to 140 °C | 355 | O=C1CCCc2nc(Cc3ccc([N+](=O)[O-])cc3)c3[nH]c4ccccc4c3c21 [Example 26, 6-(4-Nitro-benzyl)-2,3,4,7-tetrahydro-indolo[2,3-c]quinolin-1-one] |
| 138 to 140 °C | 2.24 | COc1ccc(Cc2nc3c(c4c2[nH]c2ccccc24)C(=O)CC(C)(C)C3)c(F)c1 [Example 27, 6-(2-Fluoro-4-methoxy-benzyl)-3,3-dimethyl-2,3,4,7-tetrahydro-indolo[2,3-c]quinolin-1-one] |
| 200 to 204 °C | 18.2 | CC1(C)CC(=O)c2c(nc(Cc3ccc(F)cc3)c3[nH]c4ccccc4c23)C1 [Example 28, 6-(4-Fluoro-benzyl)-3,3-dimethyl-2,3,4,7-tetrahydro-indolo[2,3-c]quinolin-1-one] |
| 228 to 230 °C | 1.26 | COc1ccc(Cc2nc3c(c4c2[nH]c2ccccc24)C(=O)CCC3)cc1F [Example 29, 6-(3-Fluoro-4-methoxy-benzyl)-2,3,4,7-tetrahydro-indolo[2,3-c]quinolin-1-one] |
| 118 to 120 °C | 3.98 | COc1ccc(Cc2nc3c(c4c2[nH]c2ccccc24)CCCC3)cc1F [Example 30, 6-(3-Fluoro-4-methoxy-benzyl)-2,3,4,7-tetrahydro-1H-indolo[2,3-c]quinoline] |
| 199 to 200 °C | 0.398 | COc1ccc(Cc2nc3c(c4c2[nH]c2ccccc24)C(=O)CC(C)(C)C3)c(F)c1F [Example 31, 6-(2,3-Difluoro-4-methoxy-benzyl)-3,3-dimethyl-2,3,4,7-tetrahydro-indolo[2,3-c]quinolin-1-one] |
| 195 to 196 °C | 0.191 | COc1c(F)cc(Cc2nc3c(c4c2[nH]c2ccccc24)C(=O)CC(C)(C)C3)cc1F [Example 32, 6-(3,5-Difluoro-4-methoxy-benzyl)-3,3-dimethyl-2,3,4,7-tetrahydro-indolo[2,3-c]quinolin-1-one] |
| 184 to 192 °C (dec.) | 4.9 | CC1(C)CC(=O)c2c(nc(Cc3cccc(F)c3)c3[nH]c4ccccc4c23)C1 [Example 34, 6-(3-Fluoro-benzyl)-3,3-dimethyl-2,3,4,7-tetrahydro-indolo[2,3-c]quinolin-1-one] |
| 206 to 209 °C | 37.2 | CC1(C)CC(=O)c2c(nc(Cc3cccc(Cl)c3)c3[nH]c4ccccc4c23)C1 [Example 35, 6-(3-Chloro-benzyl)-3,3-dimethyl-2,3,4,7-tetrahydro-indolo[2,3-c]quinolin-1-one] |
| 219 to 221 °C | 234 | CC1(C)CC(=O)c2c(nc(Cc3cc(F)cc(Cl)c3)c3[nH]c4ccccc4c23)C1 [Example 36, 6-(3-Chloro-5-fluoro-benzyl)-3,3-dimethyl-2,3,4,7-tetrahydro-indolo[2,3-c]quinolin-1-one] |
| 193 to 196 °C (dec.) | 4.9 | CC1(C)CC(=O)c2c(nc(Cc3ccc4c(c3)OCO4)c3[nH]c4ccccc4c23)C1 [Example 37, 6-Benzo[1,3]dioxol-5-ylmethyl-3,3-dimethyl-2,3,4,7-tetrahydro-indolo[2,3-c]quinolin-1-one] |
| 216 to 218 °C | 0.631 | CC1(C)CC(=O)c2c(nc(Cc3ccc(O)c(F)c3)c3[nH]c4ccccc4c23)C1 [Example 38, 6-(3-Fluoro-4-hydroxy-benzyl)-3,3-dimethyl-2,3,4,7-tetrahydro-indolo[2,3-c]quinolin-1-one] |
| 123 to 124 °C | 11.7 | CC1(C)CC(=O)c2c(nc(Cc3ccc(N)cc3)c3[nH]c4ccccc4c23)C1 [Example 40, 6-(4-Amino-benzyl)-3,3-dimethyl-2,3,4,7-tetrahydro-indolo[2,3-c]quinolin-1-one] |
| 185 to 187 °C | – | COc1ccc(Cc2nc3c(c4c2[nH]c2ccccc24)[C@@H](OC(=O)[C@@H]2CCC(=O)N2)CC(C)(C)C3)cc1F [Example 98, (S)-6-(3-Fluoro-4-methoxy-benzyl)-3,3-dimethyl-2,3,4,7-tetrahydro-1H-indolo[2,3-c]quinolin-1-ol pyroglutamate] |
